Activity calls are given as the source filed them. Positions of bridges follow the written chain, without caps; N, C: chain ends. Residues, ends and D or L forms follow the SMILES beside them.
Assays:
Mus musculus [1] = assay: Anti-inflammatory activity in L-arginine-induced acute pancreatitis in BALB/c mouse model assessed as reduction in serum amylase at 50 mg/kg preincubated with compound followed by L-Arg induction for 1 hr and measured after 24 hrs by automatic analyzer; format: functional, organism-based; settings: time 25.0 hrs
Mus musculus [2] = assay: Anti-inflammatory activity in L-arginine-induced acute pancreatitis in BALB/c mouse model assessed as reduction in IL-6 level at 50 mg/kg preincubated with compound followed by L-Arg induction for 1 hr and measured after 24 hrs by ELISA method; format: functional, organism-based; settings: time 25.0 hrs
Mus musculus [3] = assay: Anti-inflammatory activity in L-arginine-induced acute pancreatitis in BALB/c mouse model assessed as inhibition of trypsin activity at 50 mg/kg preincubated with compound followed by L-Arg induction for 1 hr and measured after 24 hrs; format: functional, organism-based; settings: time 25.0 hrs
Mus musculus [4] = assay: Antithrombotic activity FeCl3-induced thrombosis in BALB/c mouse model assessed as carotid artery blood flow time at 5 mg/kg preincubated with compound followed by FeCl3 treatment for 1 hr and measured upto 12 mins by laser perfusion imaging method; format: functional; settings: time 72 min, 1.2 h
Mus musculus [5] = organism: Mus musculus; assay: Anti-inflammatory activity in L-arginine-induced acute pancreatitis in BALB/c mouse model assessed as reduction in serum amylase preincubated with compound followed by L-Arg induction for 1 hr and measured after 24 hrs by automatic analyzer; format: functional, organism-based; settings: dose 1.25-5 mg/kg, time 25.0 hrs
Mus musculus [6] = organism: Mus musculus; assay: Anti-inflammatory activity in L-arginine-induced acute pancreatitis in BALB/c mouse model assessed as reduction in IL-6 level preincubated with compound followed by L-Arg induction for 1 hr and measured after 24 hrs by ELISA method; format: functional, organism-based; settings: dose 1.25-5 mg/kg, time 25.0 hrs
Mus musculus [7] = assay: Anti-inflammatory activity in L-arginine-induced acute pancreatitis in BALB/c mouse model assessed as improvement in neutrophil level in spleen at 1.25 to 5 mg/kg preincubated with compound followed by L-Arg induction for 1 hr and measured after 24 hrs by flow cytometry analysis; format: functional, organism-based; settings: dose 1.25-5 mg/kg, time 25.0 hrs
Mus musculus [8] = organism: Mus musculus; assay: Anti-inflammatory activity in L-arginine-induced acute pancreatitis in BALB/c mouse model assessed as inhibition of increase in myeloperoxidase activity at preincubated with compound followed by L-Arg induction for 1 hr and measured after 24 hrs; format: functional, organism-based; settings: dose 1.25-5 mg/kg, time 25.0 hrs
Mus musculus [9] = assay: Anti-inflammatory activity in L-arginine-induced acute pancreatitis in BALB/c mouse model assessed as inhibition of trypsin activity at 1.25 to 5 mg/kg preincubated with compound followed by L-Arg induction for 1 hr and measured after 24 hrs; format: functional, organism-based; settings: dose 1.25-5 mg/kg, time 25.0 hrs
Mus musculus [10] = assay: Anti-inflammatory activity in L-arginine-induced acute pancreatitis in BALB/c mouse model assessed as decrease in neutrophil to lymphocyte ratio at 5 mg/kg preincubated with compound followed by L-Arg induction for 1 hr and measured after 24 hrs; format: functional, organism-based; settings: time 25.0 hrs
Mus musculus [11] = assay: Anti-inflammatory activity in L-arginine-induced acute pancreatitis in BALB/c mouse model assessed as decrease in platelet to lymphocyte ratio at 5 mg/kg preincubated with compound followed by L-Arg induction for 1 hr and measured after 24 hrs; format: functional, organism-based; settings: time 25.0 hrs
Mus musculus [12] = assay: Anti-inflammatory activity in L-arginine-induced acute pancreatitis in BALB/c mouse model assessed as reduction in neutrophil infiltration in pancreas at 1.25 to 5 mg/kg preincubated with compound followed by L-Arg induction for 1 hr and measured after 24 hrs by H and E staining based analysis; format: functional, organism-based; settings: dose 1.25-5 mg/kg, time 25.0 hrs
Mus musculus [13] = assay: Anti-inflammatory activity in L-arginine-induced acute pancreatitis in BALB/c mouse model assessed as reduction in interstitial edema in pancreas at 1.25 to 5 mg/kg preincubated with compound followed by L-Arg induction for 1 hr and measured after 24 hrs by H and E staining based analysis; format: functional, organism-based; settings: dose 1.25-5 mg/kg, time 25.0 hrs
Mus musculus [14] = assay: Anti-inflammatory activity in L-arginine-induced acute pancreatitis in BALB/c mouse model assessed as reduction in hemorrhage in pancreas at 1.25 to 5 mg/kg preincubated with compound followed by L-Arg induction for 1 hr and measured after 24 hrs by H and E staining based analysis; format: functional, organism-based; settings: dose 1.25-5 mg/kg, time 25.0 hrs
Mus musculus [15] = assay: Anti-inflammatory activity in L-arginine-induced acute pancreatitis in BALB/c mouse model assessed as reduction in necrosis in pancreas at 1.25 to 5 mg/kg preincubated with compound followed by L-Arg induction for 1 hr and measured after 24 hrs by H and E staining based analysis; format: functional, organism-based; settings: dose 1.25-5 mg/kg, time 25.0 hrs
Mus musculus [16] = assay: Anti-inflammatory activity in L-arginine-induced acute pancreatitis in BALB/c mouse model assessed as reduction in acinar cell necrosis in pancreas at 1.25 to 5 mg/kg preincubated with compound followed by L-Arg induction for 1 hr and measured after 24 hrs by H and E staining based analysis; format: functional, organism-based; settings: dose 1.25-5 mg/kg, time 25.0 hrs
Trypsin [17] = molecular target: T1, Trypsin (Homo sapiens, UniProt P07477+P07478+P35030); assay: Binding affinity to trypsin (unknown origin) assessed as inhibition constant by Lineweaver-Burk plot analysis; format: protein assay
Trypsin [18] = molecular target: T1, Trypsin; assay: Binding affinity to trypsin (unknown origin) assessed as dissociation constant by surface plasmon resonance imaging method; format: protein assay
[19] = Antioxidant activity assessed as DPPH radical scavenging activity at 40 uM measured at 10 min by microplate reader analysis relative to control; format: functional
[20] = Antioxidant activity assessed as ABTS radical scavenging activity at 40 uM measured at 10 min by microplate reader analysis relative to control; format: functional
[21] = Antioxidant activity assessed as ferric reducing capacity at 40 uM measured at 10 min by FRAP assay (reference value: 20.87 %); format: functional; parameters: scale not given: the % may be the effect or the level left
Mus musculus [22] = assay: Antioxidant activity in L-arginine-induced acute pancreatitis in BALB/c mouse model assessed as reversal of SOD activity at 1.25 to 5 mg/kg by DCFH-DA staining method; format: functional, organism-based; settings: dose 1.25-5 mg/kg
Mus musculus [23] = assay: Antioxidant activity in L-arginine-induced acute pancreatitis in BALB/c mouse model assessed as reversal of GSH level at 1.25 to 5 mg/kg by DCFH-DA staining method; format: functional, organism-based; settings: dose 1.25-5 mg/kg
Mus musculus [24] = assay: Antioxidant activity in L-arginine-induced acute pancreatitis in BALB/c mouse model assessed as decrease in MDA level at 1.25 to 5 mg/kg by DCFH-DA staining method; format: functional, organism-based; settings: dose 1.25-5 mg/kg
Mus musculus [25] = assay: Antioxidant activity in L-arginine-induced acute pancreatitis in BALB/c mouse model assessed as decrease in ROS accumulation at 1.25 to 5 mg/kg by DCFH-DA staining method; format: functional, organism-based; settings: dose 1.25-5 mg/kg
Mus musculus [26] = assay: Antithrombotic activity in L-arginine-induced acute pancreatitis in BALB/c mouse model assessed as reduction in thrombosis by measuring fluorescence intensity at 5 mg/kg preincubated with compound followed by L-Arg induction for 1 hr and measured after 24 hrs by imaging based analysis (reference value: 24497.7); format: functional; settings: time 25 hrs
Trypsin [27] = molecular target: T1, Trypsin; assay: Inhibition of trypsin (unknown origin) assessed as inhibition of casein hydrolysis using S2238 as chromogenic substrate preincubated for 5 mins followed by substrate addition and measured after 11 mins by absorbance based analysis; format: protein assay; settings: dose 0.3125-10 µM, time 16.0 min
Mus musculus [28] = organism: Mus musculus; assay: Antithrombotic activity in L-arginine-induced acute pancreatitis in BALB/c mouse model assessed as prolongation of plasma recalcification time preincubated with compound followed by L-Arg induction for 1 hr and measured after 24 hrs by fluorescence based analysis; format: functional, organism-based; settings: dose 0.1-50 µM, time 25.0 hrs
Mus musculus [29] = organism: Mus musculus; assay: Antithrombotic activity in L-arginine-induced acute pancreatitis in BALB/c mouse model assessed as inhibition of thrombin induced platelet aggregation preincubated with compound followed by L-Arg induction for 1 hr and measured after 24 hrs by fluorescence based analysis; format: functional, organism-based; settings: dose 12.5-50 µM, time 25.0 hrs

CC(=O)N[C@@H](CS)C(=O)O
active: Activity (Mus musculus [1]) | Activity (Mus musculus [2]) | Activity (Mus musculus [3])

CC(C)C[C@H](NC(=O)[C@@H]1CSSC[C@H](NC(=O)CNC(=O)[C@H](CO)NC(=O)[C@H](CC(C)C)NC(=O)[C@@H](N)CO)C(=O)N[C@@H](Cc2c[nH]c3ccccc23)C(=O)N[C@@H]([C@@H](C)O)C(=O)N[C@@H](CCCCN)C(=O)N[C@@H](CO)C(=O)N[C@@H](Cc2ccccc2)C(=O)N2CCC[C@H]2C(=O)N[C@@H](CCCNC(=N)N)C(=O)N[C@@H](CCCCN)C(=O)N2CCC[C@H]2C(=O)N1)C(=O)N[C@@H](CCCNC(=N)N)C(=O)O (H-SLSGCWTKSFPRKPCLR-OH; disulfide 5-15)
2.66 µM: Ki (Trypsin [17])
58.8%: Activity [20]
1.93 µM: Kd (Trypsin [18])
12.46 min: Time (Mus musculus [4])
33.1%: Activity [19]
66.5%: Activity [21]
14936.4: Flu intensity (Mus musculus [26])
active: Activity (Mus musculus [5]) Dose-Dependent Effect | Activity (Mus musculus [6]) Dose-Dependent Effect | Activity (Mus musculus [7]) | Activity (Mus musculus [8]) Dose-Dependent Effect | Activity (Mus musculus [9]) | Activity (Mus musculus [10]) | Activity (Mus musculus [11]) | Activity (Mus musculus [12]) | Activity (Mus musculus [13]) | Activity (Mus musculus [14]) | Activity (Mus musculus [15]) | Activity (Mus musculus [16]) | Activity (Mus musculus [22]) | Activity (Mus musculus [23]) | Activity (Mus musculus [24]) | Activity (Mus musculus [25]) | inhibition (Trypsin [27]) Dose-Dependent Effect | Activity (Mus musculus [28]) Dose-Dependent Effect | Activity (Mus musculus [29]) Dose-Dependent Effect
